Tests used:
lipoamide = compound: NC(=O)CCCCC1CCSS1 [lipoamide]; assay: thermal stability z-score vs DMSO; higher = more thermally stabilized by treatment; conditions: HeLa, lipoamide concentration 100 µM
Description: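 Cellular thermal proteome profiling in HeLa cells. Cells were treated with 100 µM lipoamide for 1 h, with or without 1 mM arsenate for a further 1 h, then heated to ten temperatures (37-66.3 °C), and soluble protein was quantified by TMT mass spectrometry relative to 0.1% DMSO controls. The thermal stability score (sum of log2 fold changes minus the abundance score) was transformed to a z-score; mean of n = 3 experiments.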

potassium arsenate = compound: O=[As]([O-])(O)O.[K+] [potassium arsenate]; assay: as above; conditions: HeLa; arsenate concentration 1 mM
Description: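 Cellular thermal proteome profiling in HeLa cells treated with 1 mM arsenate for 1 h (DMSO pretreatment), heated to ten temperatures (37-66.3 °C). Soluble protein was quantified by TMT mass spectrometry relative to DMSO controls; the thermal stability score was transformed to a z-score; mean of n = 3 experiments.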

[1] = arsenate co-treatment: 1 mM arsenate 1 h
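Further: each temperature applied for 3 min, abundance score taken as mean log2 fold change at the two lowest temperatures, z-score obtained by mean subtraction and division by SD.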

Sequence of UniProt Q9HAT2 (Q9HAT2 whole entry): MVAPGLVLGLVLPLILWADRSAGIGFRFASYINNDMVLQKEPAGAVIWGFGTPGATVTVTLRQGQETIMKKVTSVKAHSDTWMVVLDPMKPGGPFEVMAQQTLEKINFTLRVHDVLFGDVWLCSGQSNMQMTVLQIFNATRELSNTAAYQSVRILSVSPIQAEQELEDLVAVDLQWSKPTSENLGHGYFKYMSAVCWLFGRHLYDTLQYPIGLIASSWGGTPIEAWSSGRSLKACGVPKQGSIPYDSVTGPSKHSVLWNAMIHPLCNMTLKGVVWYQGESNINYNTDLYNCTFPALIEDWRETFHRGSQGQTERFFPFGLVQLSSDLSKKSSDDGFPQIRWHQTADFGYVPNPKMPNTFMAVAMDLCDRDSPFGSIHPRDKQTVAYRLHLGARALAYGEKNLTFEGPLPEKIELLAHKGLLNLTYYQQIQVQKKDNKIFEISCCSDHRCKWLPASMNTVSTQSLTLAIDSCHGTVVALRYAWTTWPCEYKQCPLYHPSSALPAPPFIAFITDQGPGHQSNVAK
Sequence of UniProt Q9NUP7 (Q9NUP7 whole entry): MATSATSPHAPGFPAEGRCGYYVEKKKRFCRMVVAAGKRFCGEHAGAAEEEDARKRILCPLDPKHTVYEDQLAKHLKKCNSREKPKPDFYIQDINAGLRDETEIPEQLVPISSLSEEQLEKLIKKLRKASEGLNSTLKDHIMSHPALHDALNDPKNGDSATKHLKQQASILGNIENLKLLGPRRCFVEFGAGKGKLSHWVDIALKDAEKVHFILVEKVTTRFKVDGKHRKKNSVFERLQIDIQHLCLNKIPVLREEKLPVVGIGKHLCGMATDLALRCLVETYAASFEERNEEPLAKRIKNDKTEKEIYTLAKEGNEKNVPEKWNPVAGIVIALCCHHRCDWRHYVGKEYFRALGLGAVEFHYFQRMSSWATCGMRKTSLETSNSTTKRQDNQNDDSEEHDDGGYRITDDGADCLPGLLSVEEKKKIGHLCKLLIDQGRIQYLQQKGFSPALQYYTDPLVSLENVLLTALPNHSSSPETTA
Sequence of UniProt P45973 (P45973 whole entry): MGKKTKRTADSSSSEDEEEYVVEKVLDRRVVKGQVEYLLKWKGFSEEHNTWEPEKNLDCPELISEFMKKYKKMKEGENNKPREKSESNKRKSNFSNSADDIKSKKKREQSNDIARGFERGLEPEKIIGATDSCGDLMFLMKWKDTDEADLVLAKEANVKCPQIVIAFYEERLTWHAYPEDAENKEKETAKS
Sequence of UniProt Q7L8J4 (Q7L8J4 whole entry): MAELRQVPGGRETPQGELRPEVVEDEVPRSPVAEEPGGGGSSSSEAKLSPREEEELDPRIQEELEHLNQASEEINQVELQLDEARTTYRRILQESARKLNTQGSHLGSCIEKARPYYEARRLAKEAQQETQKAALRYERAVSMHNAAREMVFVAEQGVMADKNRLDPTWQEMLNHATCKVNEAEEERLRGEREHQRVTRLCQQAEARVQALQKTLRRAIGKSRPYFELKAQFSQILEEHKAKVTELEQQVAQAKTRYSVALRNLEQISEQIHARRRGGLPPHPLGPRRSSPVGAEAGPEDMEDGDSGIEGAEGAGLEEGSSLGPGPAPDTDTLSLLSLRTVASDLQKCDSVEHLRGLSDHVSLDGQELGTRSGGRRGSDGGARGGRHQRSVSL
Sequence of UniProt Q9NVT9 (Q9NVT9 whole entry): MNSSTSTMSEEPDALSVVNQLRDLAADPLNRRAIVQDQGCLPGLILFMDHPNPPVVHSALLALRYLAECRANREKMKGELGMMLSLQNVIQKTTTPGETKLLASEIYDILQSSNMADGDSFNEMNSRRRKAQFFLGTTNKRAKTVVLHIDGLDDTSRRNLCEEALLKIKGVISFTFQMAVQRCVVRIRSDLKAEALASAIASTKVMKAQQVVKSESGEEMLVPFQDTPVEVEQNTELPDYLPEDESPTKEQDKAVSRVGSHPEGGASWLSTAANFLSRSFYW
Sequence of UniProt Q05397 (Q05397 whole entry, looked up): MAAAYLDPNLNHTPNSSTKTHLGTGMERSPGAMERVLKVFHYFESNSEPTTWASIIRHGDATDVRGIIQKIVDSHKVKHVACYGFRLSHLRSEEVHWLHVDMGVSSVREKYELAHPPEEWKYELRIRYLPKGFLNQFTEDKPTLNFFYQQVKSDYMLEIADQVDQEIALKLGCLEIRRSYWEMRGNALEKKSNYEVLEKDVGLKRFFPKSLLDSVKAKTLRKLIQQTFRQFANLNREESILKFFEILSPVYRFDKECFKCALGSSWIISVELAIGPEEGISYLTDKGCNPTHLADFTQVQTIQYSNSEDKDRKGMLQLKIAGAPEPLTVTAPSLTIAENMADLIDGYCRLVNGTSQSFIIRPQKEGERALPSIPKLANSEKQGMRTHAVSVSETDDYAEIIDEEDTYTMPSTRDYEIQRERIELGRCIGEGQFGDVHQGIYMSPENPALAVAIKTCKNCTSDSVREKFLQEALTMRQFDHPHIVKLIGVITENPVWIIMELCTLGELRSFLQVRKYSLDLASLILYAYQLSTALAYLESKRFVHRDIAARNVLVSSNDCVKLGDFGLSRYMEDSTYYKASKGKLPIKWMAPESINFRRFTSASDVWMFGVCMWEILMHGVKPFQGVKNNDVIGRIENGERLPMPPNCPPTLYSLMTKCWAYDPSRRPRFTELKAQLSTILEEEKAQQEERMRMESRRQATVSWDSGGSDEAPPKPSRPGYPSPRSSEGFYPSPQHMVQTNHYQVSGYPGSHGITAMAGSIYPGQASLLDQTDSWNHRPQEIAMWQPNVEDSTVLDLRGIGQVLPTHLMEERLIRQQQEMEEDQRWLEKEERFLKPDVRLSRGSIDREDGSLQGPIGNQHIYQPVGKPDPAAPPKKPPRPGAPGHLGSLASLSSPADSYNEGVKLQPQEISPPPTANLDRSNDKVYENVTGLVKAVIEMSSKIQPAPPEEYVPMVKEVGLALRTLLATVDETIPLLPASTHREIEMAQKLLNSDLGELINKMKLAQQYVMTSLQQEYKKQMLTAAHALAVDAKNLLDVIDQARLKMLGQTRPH
Sequence of UniProt P36897 (P36897 whole entry): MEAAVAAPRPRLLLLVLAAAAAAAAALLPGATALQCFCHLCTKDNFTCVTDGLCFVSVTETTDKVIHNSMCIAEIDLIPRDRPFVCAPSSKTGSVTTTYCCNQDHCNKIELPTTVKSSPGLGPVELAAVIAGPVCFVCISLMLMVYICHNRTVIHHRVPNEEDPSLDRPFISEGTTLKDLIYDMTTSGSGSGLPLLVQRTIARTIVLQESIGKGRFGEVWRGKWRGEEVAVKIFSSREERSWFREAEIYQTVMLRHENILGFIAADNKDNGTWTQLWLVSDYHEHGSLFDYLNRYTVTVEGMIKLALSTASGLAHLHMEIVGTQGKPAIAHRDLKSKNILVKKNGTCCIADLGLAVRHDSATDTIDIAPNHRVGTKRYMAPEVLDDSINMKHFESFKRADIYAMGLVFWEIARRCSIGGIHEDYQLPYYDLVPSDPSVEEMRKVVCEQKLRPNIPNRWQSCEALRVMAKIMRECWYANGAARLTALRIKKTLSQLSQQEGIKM
Sequence of UniProt Q9UK45 (Q9UK45 whole entry): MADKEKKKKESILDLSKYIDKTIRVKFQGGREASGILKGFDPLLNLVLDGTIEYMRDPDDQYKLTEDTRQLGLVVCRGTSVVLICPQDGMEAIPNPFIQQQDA
Sequence of UniProt Q9H223 (Q9H223 whole entry): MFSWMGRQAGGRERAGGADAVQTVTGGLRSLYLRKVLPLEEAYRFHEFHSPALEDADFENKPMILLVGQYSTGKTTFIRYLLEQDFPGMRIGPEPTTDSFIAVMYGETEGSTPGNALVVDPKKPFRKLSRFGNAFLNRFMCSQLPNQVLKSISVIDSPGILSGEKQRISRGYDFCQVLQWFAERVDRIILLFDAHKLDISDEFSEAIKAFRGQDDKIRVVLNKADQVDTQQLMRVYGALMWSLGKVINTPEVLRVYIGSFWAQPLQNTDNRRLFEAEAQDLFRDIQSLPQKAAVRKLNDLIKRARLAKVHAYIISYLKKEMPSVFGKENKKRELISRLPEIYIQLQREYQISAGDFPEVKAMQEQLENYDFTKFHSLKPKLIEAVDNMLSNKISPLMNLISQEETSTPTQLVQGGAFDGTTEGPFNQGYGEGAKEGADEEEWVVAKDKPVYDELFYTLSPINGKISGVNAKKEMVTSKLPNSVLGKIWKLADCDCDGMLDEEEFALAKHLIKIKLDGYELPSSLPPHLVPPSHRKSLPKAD
Sequence of UniProt Q4G0N4 (Q4G0N4 whole entry): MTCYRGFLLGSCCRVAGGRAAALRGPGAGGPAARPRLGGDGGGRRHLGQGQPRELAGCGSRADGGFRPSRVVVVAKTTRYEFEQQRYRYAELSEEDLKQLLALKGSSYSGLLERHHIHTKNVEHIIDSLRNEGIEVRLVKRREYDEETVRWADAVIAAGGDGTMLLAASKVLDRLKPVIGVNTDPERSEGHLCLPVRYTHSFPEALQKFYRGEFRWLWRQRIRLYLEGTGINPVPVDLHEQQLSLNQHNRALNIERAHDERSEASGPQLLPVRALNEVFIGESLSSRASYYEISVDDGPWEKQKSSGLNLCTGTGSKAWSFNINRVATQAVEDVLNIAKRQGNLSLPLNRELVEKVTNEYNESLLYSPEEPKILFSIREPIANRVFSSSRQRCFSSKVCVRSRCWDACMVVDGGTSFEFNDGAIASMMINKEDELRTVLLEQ
Sequence of UniProt Q9H0A8 (Q9H0A8 whole entry): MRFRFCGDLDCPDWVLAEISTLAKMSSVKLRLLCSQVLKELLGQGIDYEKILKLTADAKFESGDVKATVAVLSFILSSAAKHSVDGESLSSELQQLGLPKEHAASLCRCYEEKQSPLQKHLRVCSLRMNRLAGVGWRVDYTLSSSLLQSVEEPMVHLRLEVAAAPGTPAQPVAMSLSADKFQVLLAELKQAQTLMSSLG
Sequence of UniProt P14854 (P14854 whole entry): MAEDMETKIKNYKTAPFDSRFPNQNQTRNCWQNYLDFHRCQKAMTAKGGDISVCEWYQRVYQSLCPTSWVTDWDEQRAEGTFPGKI
Sequence of UniProt P31949 (P31949 whole entry): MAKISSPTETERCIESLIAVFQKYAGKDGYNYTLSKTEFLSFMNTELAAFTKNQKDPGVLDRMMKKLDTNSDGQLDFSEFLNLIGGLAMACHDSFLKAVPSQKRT

Target	thermal stability z-score (lipoamide; [1])	thermal stability z-score (lipoamide; arsenate co-treatment: none)	thermal stability z-score (potassium arsenate)
PDIA6 (UniProt Q15084)	-2.44	-1.84	0.475
BICD1 (UniProt Q96G01)	-1.17	-1.22	-1.74
RTCA (UniProt O00442)	0.213	0.21	-0.695
MID1 (UniProt O15344)	-0.525	-0.224	-0.963
DENND5B (UniProt Q6ZUT9)	0.0786	0.0385	0.148
XPO5 (UniProt Q9HAV4)	-0.576	-0.108	-0.103
EYA4 (UniProt O95677)	0.0211	-0.116	0.168
ASF1A (UniProt Q9Y294)	-0.132	-0.202	-0.103
CUTC (UniProt Q9NTM9)	0.342	0.211	-0.934
S100A11 (UniProt P31949)	1.19	1.12	0.639
AARS2 (UniProt Q5JTZ9)	-0.428	-0.143	-0.095
YTHDF3 (UniProt Q7Z739)	-0.486	0.111	0.174
SIAE (UniProt Q9HAT2)	0.527	0.537	0.741
PARN (UniProt O95453)	0.181	-0.273	0.95
COX6B1 (UniProt P14854)	0.898	0.644	-0.234
LIN7C (UniProt Q9NUP9)	0.138	0.419	0.379
ARMC1 (UniProt Q9NVT9)	0.616	0.111	0.476
PTK2 (UniProt Q05397)	0.189	0.122	-0.0048
FBXO28 (UniProt Q9NVF7)	0.0993	-0.125	-0.115
LGALS1 (UniProt P09382)	0.596	0.255	-0.756
LSM7 (UniProt Q9UK45)	0.466	0.456	-0.425
HCCS (UniProt P53701)	-0.0583	-0.124	-0.0765
SPATS2L (UniProt Q9NUQ6)	0.296	0.638	-0.0325
CPT1A (UniProt P50416)	-0.189	-0.268	-0.161

Target	thermal stability z-score (lipoamide; [1])	thermal stability z-score (lipoamide; arsenate co-treatment: none)	thermal stability z-score (potassium arsenate)
SENP6 (UniProt Q9GZR1)	-0.0511	-0.0676	-0.18
KIF1B (UniProt O60333)	-0.488	-0.322	-0.321
METAP1 (UniProt P53582)	-0.0942	-0.673	0.894
DYNC1H1 (UniProt Q14204)	-0.0235	0.118	-0.164
UBE2B (UniProt P63146)	0.48	-0.354	-0.132
ARRB1 (UniProt P49407)	0.197	0.543	0.262
ZKSCAN1 (UniProt P17029)	-0.0617	0.0599	0.128
NADK2 (UniProt Q4G0N4)	0.539	0.491	-0.584
TAX1BP3 (UniProt O14907)	0.0819	-0.232	0.424
BIN1 (UniProt O00499)	-0.407	-0.803	0.183
EMC7 (UniProt Q9NPA0)	-0.402	-0.134	-0.101
DPP9 (UniProt Q86TI2)	-0.0984	-0.0569	0.0941
PLIN3 (UniProt O60664)	0.559	0.461	0.704
PAK1 (UniProt Q13153)	0.413	0.286	0.771
RBMS1 (UniProt P29558)	-0.643	0.176	-0.265
COMMD4 (UniProt Q9H0A8)	-0.113	-0.32	-0.322
SH3BP5L (UniProt Q7L8J4)	0.286	0.0604	0.227
A0A087WV05|MYCBP	1.93	1.66	0.26
IBA57 (UniProt Q5T440)	-0.0611	0.155	-0.431
TRMT13 (UniProt Q9NUP7)	-0.376	-1.34	0.263
P3H1 (UniProt Q32P28)	-4.35	-3.23	1.2
EHD4 (UniProt Q9H223)	0.435	0.326	-0.477
RPL13A (UniProt P40429)	0.328	0.16	-0.496
ATAD3A (UniProt Q9NVI7)	-0.137	0.337	0.401

Target	thermal stability z-score (lipoamide; [1])	thermal stability z-score (lipoamide; arsenate co-treatment: none)	thermal stability z-score (potassium arsenate)
CBX5 (UniProt P45973)	-0.00136	0.383	-0.0201
RPL5 (UniProt P46777)	0.172	0.132	-0.481
TXNRD2 (UniProt Q9NNW7)	0.179	0.166	4.89
PRPF38B (UniProt Q5VTL8)	-0.807	-0.366	-0.358
MAPK8 (UniProt P45983)	0.24	0.00773	-0.00139
NME3 (UniProt Q13232)	0.0656	0.615	0.673
COL5A1 (UniProt P20908)	-1.41	-1.55	0.375
POGK (UniProt Q9P215)	0.0568	0.107	0.0895
MMP15 (UniProt P51511)	-0.901	-0.632	-0.00399
CDK5RAP1 (UniProt Q96SZ6)	0.128	0.198	0.157
CALD1 (UniProt Q05682)	0.261	0.218	0.103
SEC61A1 (UniProt P61619)	1.11	0.235	0.55
PDCL3 (UniProt Q9H2J4)	-0.0813	0.0164	-0.174
OPHN1 (UniProt O60890)	-0.0389	0.0614	0.0261
TGFBR1 (UniProt P36897)	-0.829	0.245	-0.162
CDK5RAP3 (UniProt Q96JB5)	-0.0376	0.162	0.406
FH (UniProt P07954)	0.0704	0.0826	-1.66
UBA3 (UniProt Q8TBC4)	-0.466	-0.282	-0.0439
CTTNBP2NL (UniProt Q9P2B4)	1.4	1.54	1.26
EIF4G1 (UniProt Q04637)	-0.164	-0.0562	-0.0263
ZFYVE16 (UniProt Q7Z3T8)	-0.45	0.222	-0.676
RPS9 (UniProt P46781)	0.28	0.125	-1.03
MEPCE (UniProt Q7L2J0)	-0.372	0.65	1.22
